Test results published in patent US9925227B2, “Composition for treating obesity and method of using the same” (POLIFENOLES NATURALES S.L., priority 2006, dated 2018).

Assay: Energy expenditure by indirect calorimetry, dose-response clinical trial
Type: in vivo, human
Details: for Energy Expenditure: obese non-diabetic females with NAFLD; for Total Energy Expenditure, From (start value): baseline; for Total Energy Expenditure, to (end value): end of trial
Text: Obese subjects diagnosed with NAFLD and with apparently healthy liver (HL) were matched in pairs based on age, body weight and body fat mass and were randomly divided into Experimental NAFLD group (n=36), Placebo NAFLD (n=36), Experimental HL (n=19) and Placebo-HL group (n=19). Subjects were randomly assigned, in equal numbers, to the phytomedicine experimental groups and the Placebo control group, using the Simple Randomization Procedure. Their daily dietary intake was restricted to 1800±100 kcals, of which 50±5% was in the form of carbohydrates, 30±5% from protein, and 20±5% from fat. Subjects were also instructed to consume all the foods and beverages designated by dieticians and provided by the Institute, and to eat no other food or high calories beverages. Patients were directed to take Experimental Sample and/or Placebo three times a day before meals. During the clinical phase, subjects were required to visit a designated hospital three times a week for physiological and biochemical analysis. Institute provided all foods and beverages by designated dieticians and labeled as B, L, and D for breakfast, lunch and dinner, respectively.
Measurements of Fat Oxidation by Indirect Calorimetry
Energy expenditure (EE) and substrate oxidations were measured by indirect calorimetry as described previously (Ranneries et al., 1998). Oxygen was measured with an electrochemical oxygen sensor, and carbon dioxide was measured by an infrared carbon dioxide sensor (Ametec Carbon Dioxide Analyzer). Calculations of EE and substrate oxidation rates were performed as previously described (Astrup et al., 1991). Protein oxidation was assumed to be constant and amounting to 15% of EE. The error of calculating EE by omitting the exact correction from urinary nitrogen was negligible and impossible to estimate during such a short period of time. The reliability was assessed by the coefficient of variation on resting energy expenditure repeated every week.
This effect was clearly dose-dependent phenomenon. […] Based on our dose-response trial, the optimum dose of Experimental Sample was established as 600 mg per day, which was used in further clinical trials.

Fucoxanthin
increase in daily energy expenditure rate (25 mg fucoxanthin alone): 1152 ± 290 kJ/day
Energy Expenditure (Fucoxanthin 10 mg per day, 2 weeks): 5.69 ± 0.21 kJ/min
Energy Expenditure (Fucoxanthin 10 mg per day, 5 weeks): 5.93 ± 0.15 kJ/min
Energy Expenditure (Fucoxanthin 10 mg per day, 10 weeks): 5.69 ± 0.21 kJ/min
Energy Expenditure (Fucoxanthin 10 mg per day, 16 weeks): 5.98 ± 0.18 kJ/min
Energy Expenditure (Fucoxanthin 10 mg per day, Baseline): 5.82 ± 0.18 kJ/min
Total Energy Expenditure, From (start value) (Fucoxanthin 10 mg per day): 8381 kJ/24 h
Total Energy Expenditure, to (end value) (Fucoxanthin 10 mg per day): 8611 kJ/24 h
Change in Total Energy Expenditure, Net (Fucoxanthin 10 mg per day, p < NS vs placebo): Net 230 ± 147 kJ/24 h
Energy Expenditure (Fucoxanthin 15 mg per day, 2 weeks): 5.89 ± 0.14 kJ/min
Energy Expenditure (Fucoxanthin 15 mg per day, 5 weeks): 5.98 ± 0.17 kJ/min
Energy Expenditure (Fucoxanthin 15 mg per day, 10 weeks): 6.11 ± 0.21 kJ/min
Energy Expenditure (Fucoxanthin 15 mg per day, 16 weeks): 6.39 ± 0.17 kJ/min
Energy Expenditure (Fucoxanthin 15 mg per day, Baseline): 5.85 ± 0.27 kJ/min
Total Energy Expenditure, From (start value) (Fucoxanthin 15 mg per day): 8424 kJ/24 h
Total Energy Expenditure, to (end value) (Fucoxanthin 15 mg per day): 9202 kJ/24 h
Change in Total Energy Expenditure, Net (Fucoxanthin 15 mg per day, p < 0.05 vs placebo): Net 778 ± 260 kJ/24 h
Energy Expenditure (Fucoxanthin 25 mg per day, 2 weeks): 6.02 ± 0.23 kJ/min
Energy Expenditure (Fucoxanthin 25 mg per day, 5 weeks): 5.92 ± 0.27 kJ/min
Energy Expenditure (Fucoxanthin 25 mg per day, 10 weeks): 6.29 ± 0.31 kJ/min
Energy Expenditure (Fucoxanthin 25 mg per day, 16 weeks): 6.72 ± 0.22 kJ/min
Energy Expenditure (Fucoxanthin 25 mg per day, Baseline): 5.92 ± 0.16 kJ/min
Total Energy Expenditure, From (start value) (Fucoxanthin 25 mg per day): 8525 kJ/24 h
Total Energy Expenditure, to (end value) (Fucoxanthin 25 mg per day): 9677 kJ/24 h
Change in Total Energy Expenditure, Net (Fucoxanthin 25 mg per day, p < 0.05 vs placebo): Net 1152 ± 290 kJ/24 h
Energy Expenditure (Fucoxanthin 50 mg per day, 2 weeks): 5.91 ± 0.31 kJ/min
Energy Expenditure (Fucoxanthin 50 mg per day, 5 weeks): 6.32 ± 0.22 kJ/min
Energy Expenditure (Fucoxanthin 50 mg per day, 10 weeks): 6.92 ± 0.31 kJ/min
Energy Expenditure (Fucoxanthin 50 mg per day, 16 weeks): 7.37 ± 0.35 kJ/min
Energy Expenditure (Fucoxanthin 50 mg per day, Baseline): 6.04 ± 0.24 kJ/min
Total Energy Expenditure, to (end value) (Fucoxanthin 50 mg per day): 10613, kJ/24 h
Change in Total Energy Expenditure, Net (Fucoxanthin 50 mg per day, p < 0.001 vs placebo): Net 1915 ± 246 kJ/24 h
